Test results reported in patent US12570655B2, “Cysteine covalent modifiers of AKT1 and uses thereof” (Terremoto Biosciences, Inc., priority 2023, dated 2026).

Experiments:
Type in all cases: cell-based
[1] = tested on: LAPC4 prostate cancer cells; assay: Antiproliferative effects in LAPC4 cells (CellTiter Glo); conditions: Homo sapiens, LAPC4, 72 h, LAPC4 cells (AKT1 E17K allele), read-out: LAPC4 proliferation IC50
Procedure, shortened: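 Growth inhibition was measured by CellTiter Glo ATP luminescence after 72 h compound exposure of 1,000 seeded cells/well. The cells were AKT1 E17K-expressing LAPC4 prostate cancer cells maintained in IMDM plus 12% FBS. IC50 values came from Hill-equation fits.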

[2] = molecular target: T1, AKT1 E17K (Homo sapiens, UniProt P31749, E17K); assay: Live cell AKT1 E17K target engagement by NanoBRET competitive probe displacement; conditions: HEK293 cells transfected with kinase-NanoLuciferase fusion, 2 h at 37° C.
T1 construct: expressed in transfected cells; host or cells: HEK293
Procedure, shortened: (§1)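 IC50 fitted (Hill, log inhibitor vs response) to BRET signal, E600/E460 ratio, measured with extracellular NanoLuc inhibitor present. Intact transfected HEK293 cells bearing NanoLuc-tagged kinase were co-incubated 2 h, 37 °C, with compound dilution series and ~EC50 ATP-competitive fluorescent tracer.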

[3] = molecular target: T2, AKT2 (Homo sapiens, UniProt P31751); assay: Live cell AKT2 target engagement by NanoBRET competitive probe displacement; conditions: HEK293 cells transfected with kinase-NanoLuciferase fusion, 2 h at 37° C.
T2 construct: expressed in transfected cells; host or cells: HEK293
Procedure, shortened: as §1

[4] = molecular target: T3, AKT1 WT (Homo sapiens, UniProt P31749); assay: Live cell AKT1 WT target engagement by NanoBRET competitive probe displacement; conditions: HEK293 cells transfected with kinase-NanoLuciferase fusion, 2 h at 37° C.
T3 construct: expressed in transfected cells; host or cells: HEK293
Procedure, shortened: as §1

T1 sequence (P31749 whole entry E17K, the tested form may be a part): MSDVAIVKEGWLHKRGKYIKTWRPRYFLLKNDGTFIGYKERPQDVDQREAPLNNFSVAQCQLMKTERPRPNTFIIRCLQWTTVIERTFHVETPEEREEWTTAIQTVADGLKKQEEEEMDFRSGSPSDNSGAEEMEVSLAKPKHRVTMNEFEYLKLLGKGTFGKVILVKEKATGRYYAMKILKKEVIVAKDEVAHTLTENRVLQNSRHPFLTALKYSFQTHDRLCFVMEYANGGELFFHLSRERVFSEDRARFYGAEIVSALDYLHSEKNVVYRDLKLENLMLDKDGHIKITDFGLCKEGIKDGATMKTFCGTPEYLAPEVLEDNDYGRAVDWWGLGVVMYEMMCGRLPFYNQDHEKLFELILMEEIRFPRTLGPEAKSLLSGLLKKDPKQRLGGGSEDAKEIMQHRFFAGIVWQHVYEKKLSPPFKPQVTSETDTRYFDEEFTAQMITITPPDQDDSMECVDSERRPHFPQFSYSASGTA
T2 sequence (P31751 whole entry, the tested form may be a part): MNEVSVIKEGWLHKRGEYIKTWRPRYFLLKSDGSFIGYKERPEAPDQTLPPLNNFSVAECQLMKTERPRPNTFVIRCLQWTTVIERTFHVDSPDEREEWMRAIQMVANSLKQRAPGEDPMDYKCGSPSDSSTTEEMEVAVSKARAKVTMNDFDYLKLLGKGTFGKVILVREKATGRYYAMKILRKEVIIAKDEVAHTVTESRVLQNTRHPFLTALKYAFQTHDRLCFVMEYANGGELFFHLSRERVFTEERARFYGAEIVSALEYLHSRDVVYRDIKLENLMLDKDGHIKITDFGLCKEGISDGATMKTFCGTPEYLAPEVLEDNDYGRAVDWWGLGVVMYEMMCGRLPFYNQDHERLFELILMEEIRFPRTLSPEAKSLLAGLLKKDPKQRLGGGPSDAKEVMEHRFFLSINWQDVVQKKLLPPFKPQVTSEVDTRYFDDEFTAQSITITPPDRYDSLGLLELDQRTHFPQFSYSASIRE
T3 sequence (P31749 whole entry, the tested form may be a part): as the sequence (P31749 whole entry E17K, the tested form may be a part) above, with K17E counted along it

## C=CC(=O)N1CCC12CCC(N[C@H]1CCc3cc(-n4c(-c5cccnc5N)nc5ccc(-n6cccn6)nc54)ccc31)CC2 (stereo partly drawn) [Example 80, 1-(7-{[(1S)-5-[2-(2-aminopyridin-3-yl)-5-(pyrazol-1-yl)imidazo[4,5-b]pyridin-3-yl]-2,3-dihydro-1H-inden-1-yl]amino}-1-azaspiro[3.5]nonan-1-yl)prop-2-en-1-one]
[1]
  IC50: 120 nM
[2]
  IC50: 41.7 nM
[3]
  IC50: 166 nM
[4]
  IC50: 15.7 nM

## C=C(F)C(=O)N1CC2(CC(N[C@H]3CCc4cc(-n5c(-c6cccnc6N)nc6ccc(-n7cccn7)nc65)ccc43)C2)C1 [Example 83, (S)-1-(6-((5-(2-(2-aminopyridin-3-yl)-5-(1H-pyrazol-1-yl)-3H-imidazo[4,5-b]pyridin-3-yl)-2,3-dihydro-1H-inden-1-yl)amino)-2-azaspiro[3.3]heptan-2-yl)-2-fluoroprop-2-en-1-one]
[1]
  IC50: 506 nM
[2]
  IC50: 192 nM
[3]
  IC50: 583 nM
[4]
  IC50: 56.2 nM

## C=C(F)C(=O)N1CCC2(CC1)CC(N[C@H]1CCc3cc(-n4c(-c5cccnc5N)nc5ccc(-n6cccn6)nc54)ccc31)C2 [Example 84, (S)-1-(2-((5-(2-(2-aminopyridin-3-yl)-5-(1H-pyrazol-1-yl)-3H-imidazo[4,5-b]pyridin-3-yl)-2,3-dihydro-1H-inden-1-yl)amino)-7-azaspiro[3.5]nonan-7-yl)-2-fluoroprop-2-en-1-one]
[1]
  IC50: 327 nM
[2]
  IC50: 264 nM
[3]
  IC50: 278 nM
[4]
  IC50: 34.1 nM

## C=CC(=O)N1CCC(N[C@H]2CCc3cc(-n4c(-c5cccnc5N)nc5ccc(C6CC6)nc54)ccc32)CC1 [Example 85, (S)-1-(4-((5-(2-(2-aminopyridin-3-yl)-5-cyclopropyl-3H-imidazo[4,5-b]pyridin-3-yl)-2,3-dihydro-1H-inden-1-yl)amino)piperidin-1-yl)prop-2-en-1-one]
[1]
  IC50: 1390 nM
[2]
  IC50: 546 nM
[3]
  IC50: 865 nM
[4]
  IC50: 46 nM

## C=CC(=O)N1CCC(N[C@H]2CCc3cc(-n4c(-c5cccnc5N)nc5ccc(N6CCOCC6)nc54)ccc32)CC1 [Example 86, (S)-1-(4-((5-(2-(2-aminopyridin-3-yl)-5-morpholino-3H-imidazo[4,5-b]pyridin-3-yl)-2,3-dihydro-1H-inden-1-yl)amino)piperidin-1-yl)prop-2-en-1-one]
[1]
  IC50: 180 nM
[2]
  IC50: 153 nM
[3]
  IC50: 584 nM
[4]
  IC50: 13.7 nM

## CC(C)(C)/C=C/C(=O)N1CCC(N[C@H]2CCc3cc(-n4c(-c5cccnc5N)nc5ccc(-n6cccn6)nc54)ccc32)CC1 [Example 95, (S,E)-1-(4-((5-(2-(2-aminopyridin-3-yl)-5-(1H-pyrazol-1-yl)-3H-imidazo[4,5-b]pyridin-3-yl)-2,3-dihydro-1H-inden-1-yl)amino)piperidin-1-yl)-4,4-dimethylpent-2-en-1-one]
[1]
  IC50: 677 nM
[2]
  IC50: 312 nM
[3]
  IC50: 1190 nM
[4]
  IC50: 110 nM

## C/C=C/C(=O)N1CCC(N[C@H]2CCc3cc(-n4c(-c5cccnc5N)nc5ccc(-n6cccn6)nc54)ccc32)CC1 [Example 96, (S,E)-1-(4-((5-(2-(2-aminopyridin-3-yl)-5-(1H-pyrazol-1-yl)-3H-imidazo[4,5-b]pyridin-3-yl)-2,3-dihydro-1H-inden-1-yl)amino)piperidin-1-yl)but-2-en-1-one]
[1]
  IC50: 3650 nM
[2]
  IC50: > 1000 nM
[3]
  IC50: 3910 nM
[4]
  IC50: 58 nM

## C=CC(=O)N1CCC(N[C@H]2CCc3cc(-n4c(-c5cccnc5N)nc5ccc(-c6ccn(C(F)F)n6)nc54)ccc32)CC1 [Example 107, 1-(4-{[(1S)-5-[2-(2-aminopyridin-3-yl)-5-[1-(difluoromethyl)pyrazol-3-yl]imidazo[4,5-b]pyridin-3-yl]-2,3-dihydro-1H-inden-1-yl]amino}piperidin-1-yl)prop-2-en-1-one]
[1]
  IC50: 164 nM
[2]
  IC50: 18.1 nM
[3]
  IC50: 192 nM
[4]
  IC50: 6.19 nM

## C=C(OC)C(=O)Nc1ccccc1C(=O)N[C@H]1CCc2cc(-n3c(-c4cccnc4N)nc4ccc(-n5cccn5)nc43)ccc21 [Example 108, (S)-N-(5-(2-(2-aminopyridin-3-yl)-5-(1H-pyrazol-1-yl)-3H-imidazo[4,5-b]pyridin-3-yl)-2,3-dihydro-1H-inden-1-yl)-2-(2-methoxyacrylamido)benzamide]
[1]
  IC50: 94.3 nM
[2]
  IC50: 42.4 nM
[3]
  IC50: 165 nM
[4]
  IC50: 10.2 nM

## C=CC(=O)N1CCC(N[C@H]2CCc3cc(-n4c(-c5cccnc5N)nc5ccc(-c6ncco6)nc54)ccc32)CC1 [Example 109, (S)-1-(4-((5-(2-(2-aminopyridin-3-yl)-5-(oxazol-2-yl)-3H-imidazo[4,5-b]pyridin-3-yl)-2,3-dihydro-1H-inden-1-yl)amino)piperidin-1-yl)prop-2-en-1-one]
[1]
  IC50: 3160 nM
[2]
  IC50: 124 nM
[3]
  IC50: 454 nM
[4]
  IC50: 24.9 nM

## C=CC(=O)N1CCC(N[C@H]2CCc3cc(-n4c(-c5cccnc5N)nc5ccc(-c6cccnc6)nc54)ccc32)CC1 [Example 110, (S)-1-(4-((5-(2-(2-aminopyridin-3-yl)-5-(pyridin-3-yl)-3H-imidazo[4,5-b]pyridin-3-yl)-2,3-dihydro-1H-inden-1-yl)amino)piperidin-1-yl)prop-2-en-1-one]
[1]
  IC50: 298 nM
[2]
  IC50: 141 nM
[3]
  IC50: 628 nM
[4]
  IC50: 21.8 nM

## C=CC(=O)N1CCC(N[C@@H]2c3ccc(-n4c(-c5cccnc5N)nc5ccc(-n6cccn6)nc54)cc3CC2(F)F)CC1 [Example 119, 1-(4-{[(1R)-5-[2-(2-aminopyridin-3-yl)-5-(pyrazol-1-yl)imidazo[4,5-b]pyridin-3-yl]-2,2-difluoro-1,3-dihydroinden-1-yl]amino}piperidin-1-yl)prop-2-en-1-one]
[1]
  IC50: 595 nM
[2]
  IC50: 582 nM
[3]
  IC50: 3590 nM
[4]
  IC50: 85.6 nM

## C=CC(=O)N1CCC(N[C@H]2CCc3cc(-n4c(-c5cccnc5N)nc5ccc(-c6cnccn6)nc54)ccc32)CC1 [Example 120, (S)-1-(4-((5-(2-(2-aminopyridin-3-yl)-5-(pyrazin-2-yl)-3H-imidazo[4,5-b]pyridin-3-yl)-2,3-dihydro-1H-inden-1-yl)amino)piperidin-1-yl)prop-2-en-1-one]
[1]
  IC50: 814 nM
[2]
  IC50: 185 nM
[3]
  IC50: 885 nM
[4]
  IC50: 23.6 nM

## C=CC(=O)N1CCC(N[C@H]2CCc3cc(-n4c(-c5cccnc5N)nc5ccc(-c6cc7n(n6)CCOC7)nc54)ccc32)CC1 [Example 121, (S)-1-(4-((5-(2-(2-aminopyridin-3-yl)-5-(6,7-dihydro-4H-pyrazolo[5,1-c][1,4]oxazin-2-yl)-3H-imidazo[4,5-b]pyridin-3-yl)-2,3-dihydro-1H-inden-1-yl)amino)piperidin-1-yl)prop-2-en-1-one]
[1]
  IC50: 248 nM
[2]
  IC50: 174 nM
[3]
  IC50: 358 nM
[4]
  IC50: 43.3 nM

## Nc1ncccc1-c1nc2ccc(-n3cccn3)nc2n1-c1ccc2c(c1)CC[C@@H]2NC1CCN(C(=O)[C@H]2CO2)CC1 [Example 122, 3-{3-[(1S)-1-({1-[(2R)-oxirane-2-carbonyl]piperidin-4-yl}amino)-2,3-dihydro-1H-inden-5-yl]-5-(pyrazol-1-yl)imidazo[4,5-b]pyridin-2-yl}pyridin-2-amine]
[1]
  IC50: 116 nM
[2]
  IC50: 112 nM
[3]
  IC50: 305 nM
[4]
  IC50: 41.3 nM
